# In the supplement of paper PMC10307832:
# Assays:
# Assay in all cases: relative viability (nuclei count vs DMSO), 5 days (fraction); higher = more cells survive
# Mirin + Pictilisib = compound: N=C1NC(=O)/C(=C/c2ccc(O)cc2)S1 [Mirin] + CS(=O)(=O)N1CCN(Cc2cc3nc(-c4cccc5[nH]ncc45)nc(N4CCOCC4)c3s2)CC1 [Pictilisib] (partner 1 µM)
# Procedure, shortened: (§1)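 Lung cancer cell lines, seeded in 1536-well plates, were treated the following day by pin tool with a single drug or with five library-drug doses (not always all listed) in √10 steps on top of a fixed anchor-drug dose. Cells were fixed and nuclei stained in one step after 5 days, and nuclei were counted. Relative viability is the nuclei count for treated wells divided by that for vehicle wells, reported as medians of duplicate plates.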
# [1] = compound: CCC1=CN=CN=C1N2CCN(CC2)CC3=NC4=C(N3)C=C(C=C4)C(F)(F)F + CCNC(=O)c1noc(-c2cc(C(C)C)c(O)cc2O)c1-c1ccc(CN2CCOCC2)cc1 [Luminespib] (partner 0.01 µM)
# Procedure, shortened: as §1
# [2] = compound: CCC1=CN=CN=C1N2CCN(CC2)CC3=NC4=C(N3)C=C(C=C4)C(F)(F)F + NC(=O)Nc1cc(-c2cccc(F)c2)sc1C(=O)N[C@H]1CCCNC1 [AZD7762] (partner 0.2 µM)
# Procedure, shortened: as §1
# [3] = compound: CCC1=CN=CN=C1N2CCN(CC2)CC3=NC4=C(N3)C=C(C=C4)C(F)(F)F + CS(=O)(=O)CCNCc1ccc(-c2ccc3ncnc(Nc4ccc(OCc5cccc(F)c5)c(Cl)c4)c3c2)o1 [Lapatinib] (partner 2 µM)
# Procedure, shortened: as §1
Cell Line,relative viability (Mirin + Pictilisib; first compound 0.25 µM),relative viability (Mirin + Pictilisib; first compound 0.7906 µM),relative viability (Mirin + Pictilisib; first compound 2.5 µM),relative viability (Mirin + Pictilisib; first compound 7.906 µM),relative viability (Mirin + Pictilisib; first compound 25 µM),relative viability ([1]; first compound 0.04 µM),relative viability ([1]; first compound 0.1265 µM),relative viability ([1]; first compound 0.4 µM),relative viability ([1]; first compound 1.265 µM),relative viability ([1]; first compound 4 µM),relative viability ([2]; first compound 0.04 µM),relative viability ([2]; first compound 0.1265 µM),relative viability ([2]; first compound 0.4 µM),relative viability ([2]; first compound 1.265 µM),relative viability ([2]; first compound 4 µM),relative viability ([3]; first compound 0.04 µM),relative viability ([3]; first compound 0.1265 µM),relative viability ([3]; first compound 0.4 µM),relative viability ([3]; first compound 1.265 µM),relative viability ([3]; first compound 4 µM)
NCI-H3122,0.541,0.515,0.576,0.673,0.7,0.109,0.0823,0.0856,0.0704,0.0698,0.971,0.947,0.957,1.04,0.977,1.11,0.992,1,1.03,0.961
NCI-H1944,0.346,–,0.328,0.335,0.359,0.993,0.677,0.688,0.513,0.573,0.757,0.512,0.465,0.379,0.607,0.976,0.691,0.767,–,0.875
NCI-H358,0.357,0.288,0.415,0.315,0.323,0.288,0.263,0.339,–,0.194,0.614,0.436,0.453,0.51,0.485,0.477,0.399,0.428,0.337,0.387
NCI-H1734,0.427,0.376,0.445,0.444,0.394,0.213,0.196,0.173,0.207,0.185,0.619,0.626,0.562,0.564,0.782,1.03,1.07,1.08,–,1.04
A-427,0.749,–,0.821,0.603,0.783,0.874,0.881,0.908,0.75,0.722,0.735,0.788,0.631,0.641,0.785,0.795,0.991,1.01,0.911,1.05
NCI-H838,0.465,0.398,0.562,0.54,0.421,0.271,0.229,0.308,0.342,0.327,1.04,0.877,0.904,0.829,0.948,1.09,0.876,0.92,0.692,1.03
LCLC-97TM1,0.184,0.128,0.193,0.136,0.149,0.706,0.779,0.724,0.733,0.716,0.263,0.206,0.22,0.309,0.274,1.02,0.697,0.828,0.877,0.8
BEN,0.484,0.656,0.619,0.416,0.312,0.227,0.212,0.319,0.289,0.13,0.573,0.57,0.614,0.611,0.578,0.535,0.731,0.597,0.492,0.437
LC-2-ad,0.554,0.298,0.497,0.216,0.356,0.952,1.01,1.01,0.873,0.939,0.87,0.807,0.823,0.81,0.804,1.07,0.898,0.899,0.945,0.925
ABC-1,0.923,0.501,0.753,0.695,0.302,0.636,–,–,0.504,0.527,0.766,0.906,0.702,0.956,0.869,1.23,1.24,1.25,1.01,0.98
NCI-H650,0.835,–,0.945,–,0.744,0.889,0.926,0.698,0.739,0.806,0.844,0.909,1.01,1.29,0.946,0.73,0.762,1.21,1.01,1.06
NCI-H1755,0.475,0.336,0.479,0.395,0.356,0.458,0.483,0.311,0.338,0.308,0.579,0.528,0.434,0.395,0.602,1.07,0.93,0.981,0.924,1.1
EPLC-272H,0.35,–,0.284,0.311,0.258,0.24,0.344,0.21,0.25,0.3,0.172,0.209,0.207,0.245,0.262,0.854,0.807,0.853,0.913,0.975
NCI-H1437,0.525,0.436,0.487,0.272,0.165,1.07,0.995,0.964,1.01,0.907,1.13,1.15,0.996,1.03,0.706,0.777,0.668,0.74,0.635,0.641
EKVX,0.39,0.422,0.396,0.394,0.378,0.846,0.83,0.882,–,0.919,0.724,0.712,0.756,0.646,0.777,0.212,0.198,0.227,0.174,0.216
NCI-H1651,0.62,0.597,0.573,0.488,0.554,0.977,0.84,0.739,0.923,0.767,0.452,0.433,0.436,0.484,0.524,0.839,0.827,0.818,0.787,0.87
